Results reported in ChEMBL document CHEMBL4304772, “Synthesis, in vitro biological evaluation and in silico studies of certain arylnicotinic acids conjugated with aryl (thio)semicarbazides as a novel class of anti-leishmanial agents” (Eur J Med Chem, 2019).
Activity calls are given as the source filed them. The rule behind the calls is not given here.

Assays:
[1] = system: Leishmania major; test: Reversible inhibition of DHFR-TS/PTR1 in Leishmania major promastigote form in presence of excess folic acid
[2] = system: Leishmania major; test: Antileishmanial activity against Leishmania major promastigotes measured after 24 hrs by alamar blue staining based fluorescence assay; assay type: functional, organism-based
[3] = Selectivity index, ratio of CC50 for African green monkey Vero cells to IC50 for leishmania major promastigote; assay type: toxicity; details: read-out: Ratio CC50/IC50
[4] = system: Leishmania major; test: Antileishmanial activity against Leishmania major amastigotes measured after 72 hrs by resazurin dye based fluorescence assay; assay type: functional, organism-based
[5] = Cytotoxicity against African green monkey Vero cells after 72 hrs by crystal violet staining based assay; assay type: cell-based; details: chlorocebus sabaeus
[6] = system: Leishmania major; test: Potency index, ratio of miltefosine IC50 for Leishmania major amastigote form to compound IC50 for Leishmania major amastigote form; assay type: functional
[7] = system: Leishmania major; test: Antileishmanial activity against Leishmania major promastigote form assessed as parasite survival at 4.5 uM measured after 48 hrs in presence of 20 uM of folinic acid relative to control; assay type: functional
[8] = system: Leishmania major; test: Inhibition of DHFR-TS/PTR1 in Leishmania major promastigote form assessed as parasite survival at 4.5 uM measured after 48 hrs in presence of 20 uM folic acid relative to control
[9] = system: Leishmania major; test: Inhibition of DHFR-TS/PTR1 in Leishmania major promastigote form assessed as parasite survival at 4.5 uM measured after 48 hrs in presence of 100 uM of folic acid relative to control
[10] = system: Leishmania major; test: Inhibition of DHFR-TS/PTR1 in Leishmania major promastigote form assessed as parasite survival at 4.5 uM measured after 48 hrs relative to control
[11] = system: Leishmania major; test: Antileishmanial activity against Leishmania major promastigote form assessed as parasite survival at 4.5 uM measured after 48 hrs in presence of 100 uM of folinic acid relative to control; assay type: functional
[12] = system: Leishmania major; details: 100 uM
Description: Inhibition of DHFR-TS/PTR1 in Leishmania major promastigote form assessed as parasite survival at 100 uM measured after 48 hrs in presence of 100 uM folic acid relative to control

[13] = system: Leishmania major; details: 100 uM; remark: listed apart in the source
Description: Inhibition of DHFR-TS/PTR1 in Leishmania major promastigote form assessed as parasite survival at 100 uM measured after 48 hrs relative to control

[14] = system: Leishmania major; test: Antileishmanial activity against Leishmania major promastigote form assessed as parasite survival at 5.9 uM measured after 48 hrs in presence of 20 uM folinic acid relative to control; assay type: functional
[15] = system: Leishmania major; test: Inhibition of DHFR-TS/PTR1 in Leishmania major promastigote form assessed as parasite survival at 5.9 uM measured after 48 hrs relative to control
[16] = system: Leishmania major; test: Antileishmanial activity against Leishmania major promastigote form assessed as parasite survival at 5.9 uM measured after 48 hrs in presence of 100 uM folinic acid relative to control; assay type: functional
[17] = system: Leishmania major; test: Inhibition of DHFR-TS/PTR1 in Leishmania major promastigote form assessed as parasite survival at 5.9 uM measured after 48 hrs in presence of 100 uM folic acid relative to control
[18] = system: Leishmania major; test: Inhibition of DHFR-TS/PTR1 in Leishmania major promastigote form assessed as parasite survival at 5.9 uM measured after 48 hrs in presence of 20 uM folic acid relative to control

SMILES | reversible inhibition (active/inactive) [1] | IC50 [2] | other results
COc1ccc(NC(=O)NNC(=O)c2ccc(-c3ccc(OC)c(OC)c3)nc2C)cc1 | Active | 19.7 µM | 
COc1ccc(-c2ccc(C(=O)NNC(=O)Nc3ccc(Cl)cc3)c(C)n2)cc1 | Active | 21.9 µM | 
COc1ccc(-c2ccc(C(=O)NNC(=O)Nc3ccc(Cl)cc3)c(C)n2)cc1OC | Active | 18.8 µM | 
COc1ccc(NC(=S)NNC(=O)c2ccc(-c3ccc(OC)cc3)nc2C)cc1 | Active | 11.4 µM | 
COc1ccc(NC(=S)NNC(=O)c2ccc(-c3ccc(OC)c(OC)c3)nc2C)cc1 | Active | 6.4 µM | selectivity ratio [3]: 98.8; IC50 [4]: 4.8 µM; CC50 at 72 h [5]: 632 µM; Ratio IC50 [6]: 1.2 - 2.2
COc1cc(-c2ccc(C(=O)NNC(=O)Nc3ccccc3)c(C)n2)cc(OC)c1OC | Active | 19.8 µM | 
COc1cc(-c2ccc(C(=O)NNC(=O)Nc3ccc(Cl)cc3)c(C)n2)cc(OC)c1OC | Active | 23.9 µM | 
COc1ccc(-c2ccc(C(=O)NNC(=S)Nc3ccc(C)cc3)c(C)n2)cc1 | Active | 10.7 µM | Ratio IC50 [6]: 1.2 - 2.2
COc1cc(-c2ccc(C(=O)NNC(=S)Nc3ccc(Cl)cc3)c(C)n2)cc(OC)c1OC | Active | 4.3 µM | selectivity ratio [3]: 122; IC50 [4]: 3.3 µM; CC50 at 72 h [5]: 523 µM; Survival [7]: 81%; Ratio IC50 [6]: 1.2 - 2.2; Survival [8]: 78%; Survival [9]: 87%; Survival [10]: 23%; Survival [11]: 93%
COc1ccc(-c2ccc(C(=O)NNC(=S)Nc3ccc(Cl)cc3)c(C)n2)cc1 | Active | 16.7 µM | 
COc1ccc(NC(=O)NNC(=O)c2ccc(-c3cc(OC)c(OC)c(OC)c3)nc2C)cc1 | Active | 22.5 µM | 
COc1ccc(NC(=S)NNC(=O)c2ccc(-c3cc(OC)c(OC)c(OC)c3)nc2C)cc1 | Active | 5.8 µM | selectivity ratio [3]: 87.2; IC50 [4]: 5.9 µM; CC50 at 72 h [5]: 506 µM; Ratio IC50 [6]: 1.2 - 2.2
COc1cc(Cc2cnc(N)nc2N)cc(OC)c1OC | Active |  | Survival [12]: 99%; Survival [13]: 69%
COc1cc(-c2ccc(C(=O)NNC(=S)Nc3ccc(C)cc3)c(C)n2)cc(OC)c1OC | Active | 6.1 µM | selectivity ratio [3]: 94.2; IC50 [4]: 5.8 µM; CC50 at 72 h [5]: 574 µM; Ratio IC50 [6]: 1.2 - 2.2
CCCCCCCCCCCCCCCCOP(=O)([O-])OCC[N+](C)(C)C [MILTEFOSINE] |  | 7.6 µM | IC50 [4]: 7.3 µM
COc1ccc(-c2ccc(C(=O)NNC(=S)Nc3ccccc3)c(C)n2)cc1OC | Active | 9.2 µM | 
COc1ccc(-c2ccc(C(=O)NNC(=S)Nc3ccc(Cl)cc3)c(C)n2)cc1OC | Active | 17.4 µM | 
COc1ccc(-c2ccc(C(=O)NNC(=O)Nc3ccccc3)c(C)n2)cc1 | Active | 18.6 µM | 
COc1ccc(NC(=O)NNC(=O)c2ccc(-c3ccc(OC)cc3)nc2C)cc1 | Active | 20 µM | 
COc1ccc(-c2ccc(C(=O)NNC(=S)Nc3ccccc3)c(C)n2)cc1 | Active | 12 µM | 
COc1ccc(-c2ccc(C(=O)NNC(=S)Nc3ccc(C)cc3)c(C)n2)cc1OC | Active | 10.2 µM | 
COc1ccc(-c2ccc(C(=O)NNC(=O)Nc3ccccc3)c(C)n2)cc1OC | Active | 16.7 µM | 
COc1cc(-c2ccc(C(=O)NNC(=S)Nc3ccccc3)c(C)n2)cc(OC)c1OC | Active | 5.7 µM | selectivity ratio [3]: 90.1; IC50 [4]: 4.2 µM; Survival [14]: 75%; CC50 at 72 h [5]: 513 µM; Survival [15]: 25%; Ratio IC50 [6]: 1.2 - 2.2; Survival [16]: 88%; Survival [17]: 84%; Survival [18]: 72%
